Measurements reported in patent US20240368163A1, “COMPOUNDS AND METHODS FOR MODULATING SPLICING” (REMIX THERAPEUTICS INC., priority 2021, published 2024).

How the values were obtained:
[1] = Transwell assay for membrane efflux and permeability; format: in vitro ADME, Canine; conditions: dog; MDCK-BCRP or MDCKII-MDR1 transwell, test compound 1 μM, 2 hours at 37° C.
Description: Compounds described herein were screened for cell membrane permeability and efflux in a transwell assay using Madin-Darby Canine Kidney (MDCK) cells expressing Breast Cancer Resistance Protein (BCRP) or subclone MDCKII cells expressing Multidrug Resistance Protein 1 (MDR1).
MDCK-BCRP or MDCKII-MDR1 Cells: The Netherlands Cancer Institute, High Glucose Dulbecco's Modified Eagle's Medium (DMEM): Gibco/Thermo Fisher Scientific, Fetal Bovine Serum (FBS): Coming, Hank's Balanced Salt Solution (HBSS) and Trypsin/EDTA: Gibco/Thermo Fisher Scientific, HTS Transwell-96 Well Permeable Supports: Coming Corporation, Millicell Epithelial Volt-Ohm: Millipore, Cellometer® Vision: Nexcelom Bioscience LLC, Infinite 200 PRO microplate reader: Tecan, MTS2/4 orbital shaker: IKA Labortechnik, HEPES/Penicillin/Streptomycin: Solarbio.
MDCK-BCRP or MDCKII-MDR1 cells were seeded to each of the wells of the transwell plate at a density of 1.6×10^6 cells/mL and the plate was incubated for 4-8 days with medium changes every two days. To perform the drug transport assay, cell monolayers were first washed three times with pre-warmed HBSS and then incubated with gentle shaking (150 rpm) for 30 min at 37° C. Stock solutions of test compounds (e.g., exemplary compounds of Formulas (I), (II), and (III)) and control compounds (e.g., metoprolol, prazosin, and/or imatinib) were prepared in DMSO and adjusted to a working solution using HBSS. The final concentration of test compounds was 1 μM with DMSO; 0.5%. The plates were incubated at 37° C. for 2 hours.

Target C = experiment: HiBiT protein abundance assay, Target C; format: cell-based, human; conditions: modified K562 cells
Procedure, shortened: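 Cells carrying the HiBiT knock-in were plated at 10000 cells/well, dosed with compound (10-point, 3-fold, 10 μM top final) and incubated 24 hours at 37 °C. Lytic reagent was then added and luminescence read. Percent response fed a 4PL fit for IC50.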

[2] = Homo sapiens, K562, 24 h, Table 13A

Row | Compound | Papp at 2 h, 1 μM [1] [×10⁻⁶ cm/s] | efflux ratio at 2 h, 1 μM [1] | IC50 (Target C; [2]) [nM] | IC50 (Target C; Table 13A, 24 hours) [nM] | IC50 (Target C; Homo sapiens, K562, 24 h, Table 13B) [nM]
1 | CN(c1ccc(-c2ccc(-c3cn[nH]c3)c3ncsc23)nn1)[C@H]1C[C@]2(C)CC[C@](C)(C1)N2 [Compound 204] | < 2 | > 5 | < 100 | – | –
2 | [2H]C([2H])([2H])N(c1ccc(-c2ccc(-c3cn[nH]c3)c3ncsc23)nn1)[C@@H]1C[C@H]2CC[C@@H](C1)N2 [Compound 210] | < 2 | > 5 | < 100 | – | –
3 | CN(c1ccc(-c2ccc(-c3cn[nH]c3)c3ncsc23)nn1)[C@@H]1C[C@H]2CC[C@@H](C1)N2 [Compound 213] | < 2 | > 5 | < 100 | – | –
4 | c1nc2c(-c3cn[nH]c3)ccc(-c3ccc(N[C@@H]4C[C@H]5CCC[C@@H](C4)N5)nn3)c2s1 [Compound 215] | < 2 | > 5 | < 100 | – | –
5 | Fc1cc(-c2ccc(O[C@@H]3C[C@H]4CC[C@@H](C3)N4)nn2)c2[nH]ncc2c1-c1cn[nH]c1 [Compound 216] | < 2 | > 5 | 100 to 1000 | – | –
6 | CN(c1ccc(-c2ccc(-c3cn[nH]c3)c3ncsc23)nn1)[C@@H]1C[C@H]2CCC[C@@H](C1)N2 [Compound 226] | < 2 | > 5 | < 100 | – | –
7 | [2H]C([2H])([2H])N(c1ccc(-c2ccc(-c3cn[nH]c3)c3ncsc23)nn1)[C@@H]1C[C@H]2CCC[C@@H](C1)N2 [Compound 227] | < 2 | > 5 | < 100 | – | –
8 | CCN(c1ccc(-c2ccc(-c3cn[nH]c3)c3ncsc23)nn1)[C@@H]1C[C@H]2CCC[C@@H](C1)N2 [Compound 228] | < 2 | > 5 | < 100 | – | –
9 | CN(c1ccc(-c2ccc(-c3cnn(C)c3)c3cn[nH]c23)nn1)C1CCNCC1 [Compound 242] | < 2 | > 5 | > 10000 | – | –
10 | CN(c1ccc(-c2cc(F)c(-c3cnn(C)c3)c3cn[nH]c23)nn1)[C@@H]1C[C@H]2CC[C@@H](C1)N2 [Compound 291] | < 2 | > 5 | < 100 | – | –
11 | c1n[nH]cc1-c1ccc(-c2ccc(N[C@@H]3C[C@H]4CCC[C@@H](C3)N4)nn2)c2[nH]ncc12 [Compound 294] | < 2 | 1.5 to 5 | 100 to 1000 | – | –
12 | CC1(C)CC(Oc2ccc(-c3cc(F)c(-c4cn[nH]c4)c4cn[nH]c34)nn2)CC(C)(C)N1 [Compound 307] | 2 to 6 | > 5 | 100 to 1000 | – | –
13 | c1nc2c(-c3cn[nH]c3)ccc(-c3ccc(N(C4CC4)C4C[C@H]5CCC[C@@H](C4)N5)nn3)c2s1 (some centres unmarked) [Compound 311] | < 2 | > 5 | < 100 | – | –
14 | Fc1cc(-c2ccc(OC3CC4CC(F)(F)C(C3)N4)nn2)c2[nH]ncc2c1-c1cn[nH]c1 (centres unmarked) [Compound 313, 7-[6-({6,6-difluoro-8-azabicyclo[3.2.1]octan-3-yl}oxy)pyridazin-3-yl]-5-fluoro-4-(1H-pyrazol-4-yl)-1H-indazole] | – | < 1.5 | 100 to 1000 | – | –
15 | Fc1cc(-c2ccc(O[C@@H]3C[C@H]4CC[C@@H](C3)N4)nn2)c2sncc2c1-c1cn[nH]c1 [Compound 327] | 2 to 6 | > 5 | < 100 | – | –
16 | COc1cc(-c2ccc(-c3ccc(N(C)C4CC(C)(C)NC(C)(C)C4)nn3)c3scnc23)cnn1 [Compound 330] | 2 to 6 | > 5 | < 100 | – | –
17 | CC(C)(C)NC1CCN(c2ccc(-c3ccc(-c4cn[nH]c4)c4ncsc34)nn2)C1 (centres unmarked) [Compound 336] | 2 to 6 | > 5 | – | 100 to 1000 | –

Row | Compound | Papp at 2 h, 1 μM [1] [×10⁻⁶ cm/s] | efflux ratio at 2 h, 1 μM [1] | IC50 (Target C; [2]) [nM] | IC50 (Target C; Table 13A, 24 hours) [nM] | IC50 (Target C; Homo sapiens, K562, 24 h, Table 13B) [nM]
18 | c1nc2c(-c3cn[nH]c3)ccc(-c3ccc(N4CCC(NC5CC5)C4)nn3)c2s1 (centres unmarked) [Compound 337] | 2 to 6 | < 1.5 | > 10000 | – | –
19 | Fc1cc(-c2ccc(N[C@@H]3C[C@H]4CC[C@@H](C3)N4)nn2)c2scnc2c1-c1cn[nH]c1 [Compound 339] | < 2 | 1.5 to 5 | < 100 | – | –
20 | Cc1ncc(-c2ccc(-c3ccc(O[C@@H]4C[C@H]5CC[C@@H](C4)N5)nn3)c3scnc23)s1 [Compound 348, 7-{6-[(exo)-8-azabicyclo[3.2.1]octan-3-yloxy]pyridazin-3-yl}-4-(2-methyl-1,3-thiazol-5-yl)-1,3-benzothiazole] | < 2 | > 5 | 100 to 1000 | – | –
21 | COc1cc(-c2ccc(-c3ccc(O[C@@H]4C[C@H]5CC[C@@H](C4)N5)nn3)c3scnc23)cnn1 [Compound 362] | 2 to 6 | > 5 | < 100 | – | –
22 | Fc1ccn(-c2ccc(-c3ccc(O[C@@H]4C[C@H]5CC[C@@H](C4)N5)nn3)c3scnc23)n1 [Compound 363] | < 2 | 1.5 to 5 | 100 to 1000 | – | –
23 | CN(c1ncc(-c2ccc(-n3cccn3)c3[nH]ncc23)nn1)[C@@H]1C[C@H]2CCC[C@@H](C1)N2 [Compound 551] | 2 to 6 | > 5 | < 100 | – | –
24 | c1cnn(-c2ccc(-c3cnc(N[C@@H]4C[C@H]5CC[C@@H](C4)N5)nn3)c3cn[nH]c23)c1 [Compound 556] | 2 to 6 | > 5 | < 100 | – | –
25 | c1cnn(-c2ccc(-c3cnc(N[C@@H]4C[C@H]5CCC[C@@H](C4)N5)nn3)c3cn[nH]c23)c1 [Compound 561] | 2 to 6 | > 5 | < 100 | – | –
26 | CC(C)(C)C1CN(c2ncc(-c3ccc(-n4cccn4)c4[nH]ncc34)nn2)CCN1 (centres unmarked) [Compound 572] | < 2 | < 1.5 | 100 to 1000 | – | –
27 | CN(c1ncc(-c2ccc(-n3cncn3)c3[nH]ncc23)nn1)[C@@H]1C[C@H]2CCC[C@@H](C1)N2 [Compound 574] | < 2 | > 5 | < 100 | – | –
28 | CN(c1ncc(-c2ccc(-n3ccnn3)c3[nH]ncc23)nn1)[C@@H]1C[C@H]2CCC[C@@H](C1)N2 [Compound 576] | < 2 | > 5 | 100 to 1000 | – | –
29 | Cc1ncc(-c2ccc(-c3cnc(N(C)[C@@H]4C[C@H]5CCC[C@@H](C4)N5)nn3)c3scnc23)s1 [Compound 578] | < 2 | > 5 | < 100 | – | –
30 | Cc1nc(-c2ccc(-c3cnc(N(C)[C@@H]4C[C@H]5CCC[C@@H](C4)N5)nn3)c3scnc23)cs1 [Compound 579] | < 2 | > 5 | 100 to 1000 | – | –
31 | Cc1cc(-c2ccc(-c3cnc(N(C)[C@@H]4C[C@H]5CCC[C@@H](C4)N5)nn3)c3scnc23)sn1 [Compound 580] | < 2 | > 5 | < 100 | – | –
32 | CC(C)(C)[C@H]1CN(c2ncc(-c3ccc(-n4cccn4)c4[nH]ncc34)nn2)CCN1 [Compound 581] | 2 to 6 | < 1.5 | < 100 | – | –
33 | COc1nc(-c2ccc(N(C)[C@@H]3C[C@H]4CC[C@@H](C3)N4)nn2)ccc1-c1cn[nH]c1 [Compound 906] | < 2 | > 5 | – | – | < 100
